Patent US20090054245A1, “Method for detecting gastric cancer by detecting VLDLR gene” (FUJIFILM Corporation, priority 2006, published 2009)
“Also recorded” adds a separate entry of the source.

Experiments:
[1] = system: human VLDLR gene expression in SNU601 and MKN74 cells; experiment: RT-PCR analysis of human VLDLR expression in gastric cancer cells treated with 5-aza-dC and/or TSA; assay type: cell-based
Description: An empty pGL3 basic vector (mock) and constructs each comprising a different one of 3 sequences (fragments 1 to 3) upstream or in the proximity of VLDLR exon 1 were separately introduced into SNU601 and MKN74 cells. Luciferase activity was normalized relative to that of an internal control. Data shown in FIG. 3B contains mean values±SEMs of triplicate experiments of 3 different constructs. […] Arrows indicate fragments that were digested with restriction enzymes in a specific manner at sites recognized as methylated CpGs. […] With the use of two fragments (BS-1 and BS-2), all of the 71 CpG sites were subjected to sequencing. Squares represent CpG sites (white square: unmethylated site; and black square: methylated site).
The human VLDLR gene expression was examined in the cases in which CpG islands of the human VLDLR gene in gastric cancer cells were demethylated. Specifically, gastric cancer cells were treated in the presence of 5-aza-dC (serving as a transmethylase inhibitor) at different concentrations for 5 days, followed by determination of the capacity of inducing human VLDLR mRNA. […] RT-PCR was carried out with the use of two types of specific primers used for amplification of human VLDLR gene, followed by electrophoresis. GAPDH was used as an internal control. […]

[2] = system: CpG islands of the human VLDLR gene in gastric cancer cells; experiment: Demethylation of VLDLR CpG islands by culturing gastric cancer cells with 5-aza-dC; assay type: cell-based; conditions: gastric cancer cells cultured in the presence of 5-aza-dC
Description: In addition, the extent of methylation of the CpG islands strongly correlated with inhibition of the expression of the human VLDLR gene in some gastric cancer cells.

Row | Compound | human VLDLR mRNA expression after 5-aza-dC treatment ([1]; SNU601 and MKN74 cells (no VLDLR expression, no homozygous deletion), 5-aza-dC for 5 days (10 μM in FIG. 3A legend)) | demethylation of CpG islands of the human VLDLR gene [2] | human VLDLR gene expression level in the presence of TSA ([1]; SNU601 and MKN74 cells with densely methylated VLDLR CpG islands, TSA (10 ng/ml in FIG. 3A legend))
1 | Nc1ncn([C@H]2C[C@H](O)[C@@H](CO)O2)c(=O)n1 [5-aza-dC, 5-azadeoxycytidine] | possible to recover the expression level of the human VLDLR gene; also recorded: found to have the capacity of inducing human VLDLR mRNA | possible to demetylate such CpG islands | 
2 | CC(/C=C/C(=O)NO)=C\[C@@H](C)C(=O)c1ccc(N(C)C)cc1 [TSA, trichostatin A] |  |  | equivalent to that obtained in the absence of TSA
